Here are results for 23 compounds from ChEMBL document CHEMBL1143948, “Hepatitis C virus NS3 protease inhibitors comprising a novel aromatic P1 moiety” (Bioorg Med Chem, 2008).

In general, Ki refers to a measure of affinity in units of concentration, obtained from inhibition or displacement. A low value points to higher affinity. The CC50 is the concentration at which the toxic effect on the cells reaches its halfway point. For orientation: EC50 means the concentration that produces a half-maximal response. Lower therefore signals higher potency in that assay. For orientation: IC50 means the concentration at which inhibition is half-maximal. Read a low IC50 as higher potency.

The nature of data set [1]: Inhibition of HCV NS3 protease by FRET assay. Details: species or system Hepacivirus hominis.
Data set [2] in a line: Cytotoxicity against human hepatoma cells. The format is cell-based.
The test system of data set [3] is Hepatitis C virus. As to the kind of experiment: Antiviral activity against Hepatitis C virus infected human hepatoma cells by replicon assay. The format is functional, organism-based, Hepacivirus hominis. A general note: In antiviral work, replicon cells carry a viral genome segment that copies itself.

`COc1ccc2c(O[C@@H]3C[C@@H](C(=O)Nc4ccc(Br)cc4)N(C(=O)[C@@H](NC(=O)OC(C)(C)C)C(C)(C)C)C3)cc(-c3ccccc3)nc2c1`: affinity in data set [1] was put at a Ki of 1800 nM. In other words, the single-digit micromolar range.

Compound `COc1ccc2c(O[C@@H]3C[C@@H](C(=O)Nc4ccccc4C(=O)NS(=O)(=O)c4ccc(C(F)(F)F)cc4)N(C(=O)[C@@H](NC(=O)OC(C)(C)C)C(C)(C)C)C3)cc(-c3ccccc3)nc2c1` came in with a Ki in data set [1] of 310 nM. `COc1ccc2c(O[C@@H]3C[C@@H](C(=O)Nc4cccc(C(=O)NS(=O)(=O)c5ccccc5)c4)N(C(=O)[C@@H](NC(=O)OC(C)(C)C)C(C)(C)C)C3)cc(-c3ccccc3)nc2c1` gave a Ki in data set [1] of 780 nM. As to `COc1ccc2c(O[C@@H]3C[C@@H](C(=O)Nc4cc(C(F)(F)F)ccc4C(=O)NS(=O)(=O)c4ccccc4)N(C(=O)[C@@H](NC(=O)OC(C)(C)C)C(C)(C)C)C3)cc(-c3ccccc3)nc2c1`, half-maximal cytotoxicity in data set [2] (CC50) was put at 28000 nM. The Ki in data set [1] worked out at 350 nM. Besides, the midpoint of the response in data set [3], the EC50, lay at 5200 nM.

In the case of `COc1ccc2c(O[C@@H]3C[C@@H](C(=O)Nc4ccccc4C(=O)NS(=O)(=O)C4CC4)N(C(=O)[C@@H](NC(=O)OC(C)(C)C)C(C)(C)C)C3)cc(-c3ccccc3)nc2c1`, in data set [1], affinity was put at a Ki of 2000 nM. Same read-out and setting: the figure for `COc1ccc(S(=O)(=O)NC(=O)c2ccccc2NC(=O)[C@@H]2C[C@@H](Oc3cc(-c4ccccc4)nc4cc(OC)ccc34)CN2C(=O)[C@@H](NC(=O)OC(C)(C)C)C(C)(C)C)cc1` is 1200 nM. On to `COc1ccc2c(O[C@@H]3C[C@@H](C(=O)Nc4ccccc4C(=O)NS(=O)(=O)c4ccccc4)N(C(=O)[C@@H](NC(=O)OC(C)(C)C)C(C)(C)C)C3)cc(-c3ccccc3)nc2c1`, for which the Ki in data set [1] was determined as 830 nM. Same read-out and setting: the result for `COc1ccc2c(O[C@@H]3C[C@@H](C(=O)Nc4ccccc4C(=O)NS(C)(=O)=O)N(C(=O)[C@@H](NC(=O)OC(C)(C)C)C(C)(C)C)C3)cc(-c3ccccc3)nc2c1` reads 5900 nM; that for `COc1ccc2c(O[C@@H]3C[C@@H](C(=O)Nc4ccccc4Br)N(C(=O)[C@@H](NC(=O)OC(C)(C)C)C(C)(C)C)C3)cc(-c3ccccc3)nc2c1`, 3900 nM.

In turn, `COc1ccc2c(O[C@@H]3C[C@@H](C(=O)Nc4ccccc4CC(=O)O)N(C(=O)[C@@H](NC(=O)OC(C)(C)C)C(C)(C)C)C3)cc(-c3ccccc3)nc2c1` had a Ki in data set [1] of 17000 nM. `COc1ccc2c(O[C@@H]3C[C@@H](C(=O)Nc4ccc(C(=O)NS(=O)(=O)c5ccccc5)cc4)N(C(=O)[C@@H](NC(=O)OC(C)(C)C)C(C)(C)C)C3)cc(-c3ccccc3)nc2c1` came in with a Ki in data set [1] of 1100 nM. On the same count and under the same terms, the figure for `COc1ccc2c(O[C@@H]3C[C@@H](C(=O)Nc4c(C)cccc4C(=O)NS(=O)(=O)c4ccccc4)N(C(=O)[C@@H](NC(=O)OC(C)(C)C)C(C)(C)C)C3)cc(-c3ccccc3)nc2c1` is 3200 nM; for `COc1ccc2c(O[C@@H]3C[C@@H](C(=O)Nc4ccc(C(=O)O)cc4)N(C(=O)[C@@H](NC(=O)OC(C)(C)C)C(C)(C)C)C3)cc(-c3ccccc3)nc2c1` it is 12000 nM. The same measure, in the same setting: the figure for `COc1ccc2c(O[C@@H]3C[C@@H](C(=O)Nc4cccc(C(=O)O)c4)N(C(=O)[C@@H](NC(=O)OC(C)(C)C)C(C)(C)C)C3)cc(-c3ccccc3)nc2c1` is 6800 nM; for `COc1ccc2c(O[C@@H]3C[C@@H](C(=O)Nc4ccccc4C(=O)NS(=O)(=O)Cc4ccccc4)N(C(=O)[C@@H](NC(=O)OC(C)(C)C)C(C)(C)C)C3)cc(-c3ccccc3)nc2c1` it is 610 nM. Compound `COc1ccc2c(O[C@@H]3C[C@@H](C(=O)Nc4ccccc4C(=O)NS(=O)(=O)c4cccs4)N(C(=O)[C@@H](NC(=O)OC(C)(C)C)C(C)(C)C)C3)cc(-c3ccccc3)nc2c1` returned a Ki in data set [1] of 920 nM. The same measure, in the same setting: the figure for `COc1ccc2c(O[C@@H]3C[C@@H](C(=O)Nc4ccccc4C(=O)O)N(C(=O)[C@@H](NC(=O)OC(C)(C)C)C(C)(C)C)C3)cc(-c3ccccc3)nc2c1` is 5000 nM; for `COc1ccc2c(O[C@@H]3C[C@@H](C(=O)Nc4cccc(Br)c4)N(C(=O)[C@@H](NC(=O)OC(C)(C)C)C(C)(C)C)C3)cc(-c3ccccc3)nc2c1` it is 1400 nM. As for `CC(C)(C)NC(=O)N[C@H](C(=O)N1C[C@H]2[C@@H]([C@H]1C(=O)NC(CC1CCC1)C(=O)C(N)=O)C2(C)C)C(C)(C)C` (stereo partly drawn) [BOCEPREVIR], the inhibition constant (Ki) in data set [1] worked out at 14 nM. Compared with the last compound, the Ki is about 100-fold lower. In data set [1], `COc1ccc2c(O[C@@H]3C[C@H]4C(=O)N[C@]5(C(=O)O)C[C@H]5/C=C\CCCCC[C@H](NC(=O)OC5CCCC5)C(=O)N4C3)cc(-c3csc(NC(C)C)n3)nc2c1` [CILUPREVIR] gave a Ki of 0.66 nM. The same compound registered an EC50 in data set [3] of 3 nM.

As for `COc1ccc2c(O[C@@H]3C[C@@H](C(=O)O)N(C(=O)[C@@H](NC(=O)OC(C)(C)C)C(C)(C)C)C3)cc(-c3ccccc3)nc2c1` [CORBOXYLIC ACID], the Ki in data set [1] worked out at 66000 nM. Turning to `CC(C)(C)OC(=O)N[C@H]1CCCCC/C=C\[C@@H]2C[C@@]2(C(=O)NS(=O)(=O)C2CC2)NC(=O)[C@@H]2C[C@@H](OC(=O)N3Cc4cccc(F)c4C3)CN2C1=O` [DANOPREVIR], the IC50 in data set [1] was < 0.25 nM. The same compound displayed an EC50 in data set [3] of 2.1 nM. On to `CCC[C@H](NC(=O)[C@@H]1[C@H]2CCC[C@H]2CN1C(=O)[C@@H](NC(=O)[C@@H](NC(=O)c1cnccn1)C1CCCCC1)C(C)(C)C)C(=O)C(=O)NC1CC1` [TELAPREVIR], for which the affinity in data set [1] corresponds to a Ki of 39 nM. A half-maximal response in data set [3] (EC50) required 310 nM.
